≈ marks a conversion by molar mass, not a printed value. Like-named read-outs stand apart in the source and are kept apart here.
Assays:
Plasma stability, rat = type: in vitro ADME
D2 = D2 (Homo sapiens (Human), UniProt P14416); assay: D2 radioligand binding assay
[1] = Microsomal stability, human; type: in vitro ADME
human D2R/β-arrestin [2] = molecular target: T1, human D2R/β-arrestin (Homo sapiens (Human), UniProt P14416); assay: Gi/cAMP agonist assay (Lance Ultra cAMP, Forskolin); type: cell-based; conditions: CHO-K1 cell line expressing human D2R/β-arrestin
Method in brief: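 Cells were plated and incubated before compounds were pin-transferred and incubated for 10 min at 37 °C. Forskolin was then added to stimulate cAMP. cAMP was detected by Lance Ultra TR-FRET using Eu-cAMP tracer and ULight-anti-cAMP antibody.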

Solubility in PBS = type: physicochemical
human D2R/β-arrestin [3] = molecular target: T1, human D2R/β-arrestin; assay: β-Arrestin agonist assay (PathHunter); type: cell-based; conditions: CHO-K1 cell line expressing human D2R/β-arrestin
Method in brief: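 After compound incubation, detection reagent (Buffer:Emerald II:Galactor-Star, 19:5:1) added and luminescence or fluorescence read.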

plasma protein [4] = assay: Plasma protein binding, human; type: in vitro ADME; conditions: for fraction unbound: plasma, read-out: Plasma Protein Binding % bound
human D2R/β-arrestin [5] = molecular target: T1, human D2R/β-arrestin; assay: cell-based; conditions: cAMP Antagonist, CHO-K1 cell line expressing human D2R/β-arrestin; quinpirole used as agonist
plasma protein [6] = assay: Plasma protein binding, mouse; type: in vitro ADME; conditions: for fraction unbound: plasma, read-out: Plasma Protein Binding % bound
human D2R/β-arrestin [7] = molecular target: T1, human D2R/β-arrestin; assay: cell-based; conditions: β-arrestin Antagonist, CHO-K1 cell line expressing human D2R/β-arrestin; quinpirole used as agonist
Procedure: (§1) The detection reagents are then added, and the read-out is detected.
(§2) Cells were prepared for assays by growing cultures for up to 2 weeks (from about 6-20 passages). A vial of frozen cells was thawed in a water bath held at 37° C. The cells were then transferred into a 50 ml tube with 10 ml growth media. The vial was rinsed with growth media and the contents transferred to the 50 ml tube. The 50 ml tube was centrifuged at 1200 rpm for 5 minutes at room temperature. […] When the cells reached about 90% confluence (approximately 3 days between passages), the cells were passaged and used for either the agonist or antagonist assays as described below.
(§3) The cells were prepared for β-arrestin assays as described above. The assays were performed using a PathHunter® β-Arrestin Detecting Kit (DiscoveRX). The cells were grown on 225 mm dishes, then washed once with 1×PBS (Cellgro), followed by digestion with 2.5 ml 1× Detachment reagent (DRX 92-0009) for approximately 2 minutes.

Plasma stability, human = type: in vitro ADME
plasma protein [8] = assay: Plasma protein binding, rat; type: in vitro ADME; conditions: for fraction unbound: plasma, read-out: Plasma Protein Binding % bound
[9] = Microsomal stability, mouse
[10] = Microsomal stability, rat; type: in vitro ADME
Caco2 = Caco2 permeability; type: in vitro ADME; set-up: unit not given beside the values; conditions: for Caco2 A-B: A-B direction; for Caco2 B-A: B-A direction
human D2R/β-arrestin [11] = molecular target: T1, human D2R/β-arrestin; conditions: read-out: β-arrestin Antagonist
Procedure: as §1, §2, §3

human D2R/β-arrestin [12] = molecular target: T1, human D2R/β-arrestin; conditions: read-out: cAMP Antagonist

Sequence of D2 (P14416 whole entry): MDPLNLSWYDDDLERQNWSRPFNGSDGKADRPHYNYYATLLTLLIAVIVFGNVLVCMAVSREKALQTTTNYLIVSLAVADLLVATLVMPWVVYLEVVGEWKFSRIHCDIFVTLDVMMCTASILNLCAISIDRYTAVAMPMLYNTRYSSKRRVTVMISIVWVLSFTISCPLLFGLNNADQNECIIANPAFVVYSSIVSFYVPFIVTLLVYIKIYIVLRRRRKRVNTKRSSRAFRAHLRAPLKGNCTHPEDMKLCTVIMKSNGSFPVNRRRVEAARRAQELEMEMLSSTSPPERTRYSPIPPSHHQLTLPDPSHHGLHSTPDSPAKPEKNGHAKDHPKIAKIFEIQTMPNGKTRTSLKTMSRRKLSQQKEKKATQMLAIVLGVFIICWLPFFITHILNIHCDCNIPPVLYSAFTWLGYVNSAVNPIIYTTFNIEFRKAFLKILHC
T1 sequence (P14416 whole entry): as above

| SMILES | Plasma Stability: % remaining after 5 hours (Plasma stability, rat) [%] | Ki (D2) [µM] | Plasma Stability: % remaining after 5 hours (Plasma stability, mouse) [%] | Microsomal Stability: % remaining after 60 minutes [1] [%] | EC50 (human D2R/β-arrestin [2]) [µM] | solubility (Solubility in PBS; aqueous buffer) [µM] | EC50 (human D2R/β-arrestin [3]) [µM] | fraction unbound (plasma protein [4]) | IC50 (human D2R/β-arrestin [5]) [µM] | fraction unbound (plasma protein [6]) | IC50 (human D2R/β-arrestin [7]) [µM] | Plasma Stability: % remaining after 5 hours (Plasma stability, human) [%] | fraction unbound (plasma protein [8]) | Microsomal Stability: % remaining after 60 minutes [9] [%] | Microsomal Stability: % remaining after 60 minutes [10] [%] | Caco2 A-B (Caco2) | Caco2 B-A (Caco2) | also measured |
| --- | --- | --- | --- | --- | --- | --- | --- | --- | --- | --- | --- | --- | --- | --- | --- | --- | --- | --- |
| O=C(NC(c1ccc(F)cc1)c1ccc(Cl)cc1)C1CCN(CCOc2ccccc2)CC1 (stereo not drawn) [Compound 42] | 93 | 0.1 to 1 | 100 | 40 | 0.1 to 1 | < 0.1 | > 30 | 0.007 | 0.1 to 1 | 0.007 | 0.1 to 1 | 98 | 0.014 | 59 | 70 | – | – | – |
| O=C(NC(c1ccc(F)cc1)c1ccccn1)C1CCN(CCOc2ccccc2Cl)CC1 (stereo not drawn) [Compound 53, 1-(2-(2-chlorophenoxy)ethyl)-N-((4-fluorophenyl)(pyridin-2-yl)methyl) piperidine-4-carboxamide] | 78 | 0.1 to 1 | 96 | 42 | > 30 | 149 (≈ 69.7 µg/mL) | > 30 | 0.21 | < 0.1 | 0.021 | < 0.1 | 100 | 0.086 | 3 | 16 | 27.4 | 23.9 | – |
| O=C(NC(c1ccccn1)c1ccccc1F)C1CCN(CCOc2ccccc2)CC1 (stereo not drawn) [Compound 28] | 99 | – | 95 | 87 | 0.1 to 1 | – | > 30 | – | – | – | – | 100 | – | 52 | 78 | – | – | IC50 (human D2R/β-arrestin [11]): 1 to 10 µM; solubility (Solubility in PBS): 434 µM (≈ 188 µg/mL); IC50 (human D2R/β-arrestin [12]): > 30 µM; Plasma Protein Binding % bound (plasma protein [4]): 75.3%; Plasma Protein Binding % bound (plasma protein [6]): 72.2%; Plasma Protein Binding % bound (plasma protein [8]): 76.7% |
| O=C(NC(c1ccc(F)cc1)c1ccccn1)C1CCN(CCOc2ccccc2C(F)(F)F)CC1 (stereo not drawn) [Compound 52] | 55 | – | 89 | 46 | > 30 | 27 (≈ 13.5 µg/mL) | > 30 | 0.009 | < 0.1 | 0.009 | < 0.1 | 84 | 0.021 | 7 | 7 | 12.5 | 9.0 | – |
| O=C(NC(c1cccc(Cl)c1)c1ccccn1)C1CCN(CCOc2ccccc2)CC1 (stereo not drawn) [Compound 23] | 96 | – | 100 | 76 | > 30 | 225 (≈ 101 µg/mL) | > 30 | 0.023 | 0.1 to 1 | 0.03 | 0.1 to 1 | 100 | 0.033 | 41 | 77 | – | – | – |
| O=C(NC(c1ccc(Cl)cc1)c1ccccn1)C1CCN(CCn2ccc(=O)cc2)CC1 (stereo not drawn) [Compound 11] | 100 | 10 to 30 | 89.5 | 95 | > 30 | > 500 | > 30 | 0.485 | 10 to 30 | 0.391 | > 30 | 98.2 | 0.211 | 100 | 100 | – | – | – |
| O=C(NC(c1ccc(Cl)cc1)c1ccccc1F)C1CCN(CCOc2ccccc2)CC1 (stereo not drawn) [Compound 40, N((4-chlorophenyl)(2-fluorophenyl)methyl)-1-(2-phenoxyethyl) piperidine-4-carboxamide] | 90 | 1 to 10 | 100 | 45 | > 30 | 0.4 (≈ 0.187 µg/mL) | > 30 | 0.011 | 0.1 to 1 | 0.01 | 0.1 to 1 | 100 | 0.023 | 50 | 57 | 4.4 | 1.9 | – |
| O=C(NC(c1ccc(F)cc1)c1ccccn1)C1CCN(CCOc2ccccc2F)CC1 (stereo not drawn) [Compound 54, 1-(2-(2-fluorophenoxy)ethyl)-N-((4-fluorophenyl)(pyridin-2-yl)methyl) piperidine-4-carboxamide] | 78 | – | 100 | 70 | > 30 | > 500 | > 30 | 0.042 | 0.1 to 1 | 0.039 | 0.1 to 1 | 96 | 0.027 | 29 | 66 | 28.4 | 39.3 | – |
| O=C(NC(c1ccccc1)c1ccc(Cl)cc1)C1CCN(CCOc2ccccc2)CC1 (stereo not drawn) [Compound 39] | 86 | – | 93 | 49 | > 30 | 3.3 (≈ 1.48 µg/mL) | > 30 | 0.021 | 0.1 to 1 | 0.02 | 0.1 to 1 | 100 | 0.046 | 65 | 55 | – | – | – |
| O=C(NC(c1ccc(Cl)cc1)c1ccccn1)C1CCN(CCOc2ccc3ccc(=O)[nH]c3c2)CC1 (stereo not drawn) [Compound 15] | 91 | – | 100 | 56 | > 30 | – | > 30 | – | – | – | – | 96 | – | 44 | 68 | – | – | IC50 (human D2R/β-arrestin [11]): 10 to 30 µM; solubility (Solubility in PBS): 4.1 µM (≈ 2.12 µg/mL); IC50 (human D2R/β-arrestin [12]): > 30 µM; Plasma Protein Binding % bound (plasma protein [4]): 97.7%; Plasma Protein Binding % bound (plasma protein [6]): 97.4%; Plasma Protein Binding % bound (plasma protein [8]): 99.0% |
| O=C(NC(c1ccc(Cl)cc1)c1ccccn1)C1CCN(CCOc2ccccc2F)CC1 (stereo not drawn) [Compound 3] | 86 | – | 100 | 64 | < 0.1 | 43 (≈ 20.1 µg/mL) | > 30 | 0.246 | > 30 | 0.015 | 0.1 to 1 | 92 | 0.315 | 22 | 44 | – | – | – |
| O=C(NC(c1ccc(Cl)cc1)c1ccccn1)C1CCN(CCOc2ccc3cccnc3c2)CC1 (stereo not drawn) [Compound 16] | 97 | 10 to 30 | 94 | 34 | < 0.1 | 14 (≈ 7.01 µg/mL) | 1 to 10 | 0.01 | > 30 | 0.023 | > 30 | 98 | 0.021 | 45 | 75 | – | – | – |
| O=C(NC(c1ccc(Cl)cc1)c1ccccn1)C1CCN(CCOc2ccc(F)cc2)CC1 (stereo not drawn) [Compound 5] | 95.2 | – | 90.5 | 71 | 10 to 30 | 311 (≈ 146 µg/mL) | > 30 | 0.195 | 1 to 10 | 0.021 | 1 to 10 | 91.2 | 0.142 | 42 | 84 | – | – | – |
